Publication PMC6299481, “Deciphering the Evolution of Cephalosporin Resistance to Ceftolozane-Tazobactam in Pseudomonas aeruginosa” (mBio, 2018)

Columns and labels:
[1] = tested on: E. coli DH10B pBC SK blaPDC-3 E221K; assay: MIC, MH agar dilution (CLSI); type: cell-based, Escherichia coli; details: strain expressing E221K, highest MICs among variant strains
Experimental: Variant genes were synthesized into the pBC SK (-) vector by Celtek Bioscience (Franklin, TN). Mueller-Hinton (MH) agar-dilution MIC measurements were performed against isogenic transformants producing PDC-3 and nine variants of PDC-3 in pBC SK (-) according to the Clinical and Laboratory Standards Institute (CLSI) guidelines as previously described ([39], [48]). Avibactam, LP-06, and S02030 were tested at a constant 4 µg/ml in combination with various concentrations of ceftazidime. Piperacillin-tazobactam was maintained at a ratio of 8 piperacillin to 1 tazobactam. Ceftolozane-tazobactam was maintained at a ratio of 2 ceftolozane to 1 tazobactam. The MICs are reported as the concentrations at which bacterial growth was no longer observed. All MIC measurements were performed at least three times.

[2] = molecular target: T1, E221K variant of PDC-3 β-lactamase (Pseudomonas aeruginosa, UniProt P24735, E247K/T105A); assay: Thermal denaturation by circular dichroism; type: binding; details: 10 μM E221K with 200 μM inhibitor; CD, 20 to 80°C
T1 construct: produces the corresponding PDC-3 protein without its signal peptide; made in house; host or cells: E. coli Origami 2 DE3, pET24a (+) blaPDC-3-E221K
Experimental: (§1) Circular dichroism (CD) experiments were carried out in a Jasco (Easton, MD) J-815 spectrometer with a Peltier effect temperature controller. Quartz cells with a 0.1-cm path length were used for all experiments.
(§2) PDC-3 enzyme and the E221K variant (10 μM) with or without S02030 or LP-06 (200 μM) were monitored for thermal denaturation by CD at λ215 and λ221 between 20 and 80°C with a heating rate of 2°C/min. Two-state behavior was indicated by identical curves at each wavelength. Raw equilibrium denaturation data were normalized to the fraction of denatured protein (fU). With the assumption of a reversible two-state transition (N ↔ U), equilibrium constants (Keq) at any given temperature were calculated, as previously described ([32]), using equation 4 (4) Keq=fU/(1−fU)
(§3) The melting temperature Tm was determined at the midpoint of equilibrium folding (T = Tm) when ΔG = 0. (5) ln Keq=1/T (−ΔH/R)+ΔS/R
(§4) The free energy of unfolding was determined as previously described using the equation ΔΔGu = ΔTmΔSu^PDC-3 (Schellman), where ΔSu^PDC-3 = 0.326 ± 0.02 Kcal mol^−1 K^−1.

[3] = molecular target: T2, PDC-3 β-lactamase (Pseudomonas aeruginosa, UniProt P24735, T105A); assay: Thermal denaturation by circular dichroism; type: binding; details: 10 μM PDC-3 with 200 μM inhibitor; CD, 20 to 80°C
T2 construct: produces the corresponding PDC-3 protein without its signal peptide; made in house; host or cells: E. coli Origami 2 DE3, pET24a (+) blaPDC-3
Experimental: as §1, §2, §3, §4

[4] = molecular target: T1, E221K variant of PDC-3 β-lactamase; assay: BATSI inhibition kinetics (IC50), nitrocefin reporter; type: biochemical; details: E221K (20 nM); 5-min preincubation; 100 μM nitrocefin reporter substrate
Experimental: (§5) Because of the time-dependent inhibition observed previously with some of the chiral boronates ([43]), the BATSIs were preincubated with enzyme for 5 min in phosphate-buffered saline before initiation of the reaction with the addition of substrate. The initial velocity (0 to 10 s) was measured in the presence of a constant concentration of enzyme (1.5 nM PDC-3 and 20 nM E221K) and increasing concentrations of the inhibitors against the fixed concentration (100 μM) of the indicator substrate, nitrocefin. The IC50 is the concentration of inhibitor that reduces the velocity by 50%. IC50 values were determined by fitting the initial velocity (v0) measurements to equation 2.(2) v0= Vmax[S]/Km[1+ I/IC50]+[S]

[5] = molecular target: T2, PDC-3 β-lactamase; assay: as above; type: biochemical; details: PDC-3 (1.5 nM); 5-min preincubation; 100 μM nitrocefin reporter substrate
Experimental: as §5

T2 sequence (P24735 27-397 T105A): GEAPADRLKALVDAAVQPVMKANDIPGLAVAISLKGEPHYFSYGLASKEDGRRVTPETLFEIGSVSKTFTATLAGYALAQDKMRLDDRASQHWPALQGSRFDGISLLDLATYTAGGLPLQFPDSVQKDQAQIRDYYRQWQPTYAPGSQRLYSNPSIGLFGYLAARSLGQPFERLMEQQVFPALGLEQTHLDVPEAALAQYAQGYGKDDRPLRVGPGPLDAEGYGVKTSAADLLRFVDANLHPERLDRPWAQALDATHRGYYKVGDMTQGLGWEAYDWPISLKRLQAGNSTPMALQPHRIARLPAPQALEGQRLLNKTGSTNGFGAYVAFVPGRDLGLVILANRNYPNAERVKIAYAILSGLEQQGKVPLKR
T1 sequence (P24735 27-397 T105A/E247K): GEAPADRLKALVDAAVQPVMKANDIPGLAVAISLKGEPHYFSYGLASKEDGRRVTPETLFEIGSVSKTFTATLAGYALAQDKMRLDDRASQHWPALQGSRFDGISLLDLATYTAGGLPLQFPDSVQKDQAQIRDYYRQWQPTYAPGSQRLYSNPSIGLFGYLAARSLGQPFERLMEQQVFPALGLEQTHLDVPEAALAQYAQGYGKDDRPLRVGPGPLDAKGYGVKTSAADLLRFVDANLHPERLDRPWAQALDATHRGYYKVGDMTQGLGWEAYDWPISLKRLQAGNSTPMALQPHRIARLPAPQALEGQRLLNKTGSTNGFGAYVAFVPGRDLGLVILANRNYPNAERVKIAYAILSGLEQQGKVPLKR

## O=C(Cc1cccs1)N[C@@H](Cn1cc(C(=O)O)nn1)B(O)O [S02030]
[1]
  MICs of ceftolozane and ceftazidime combined with BATSI: 8 to 16 mg/L
[2]
  increase in thermal stability (Tm) on inhibitor binding: 3 to 4 °C
[3]
  increase in thermal stability (Tm) on inhibitor binding: 6 °C
[4]
  IC50: 0.769 ± 0.03 µM
[5]
  IC50: 0.062 ± 0.002 µM
